{"source": "patent US8318201B2", "about": "“Method of stabilizing diarylvinylene compound” (Kyowa Hakko Kirin Co., Ltd., priority 2003, dated 2012)", "origin": "cited, not measured here", "conditions": "Bioorg. Med. Chem. Lett., vol. 7, p. 2349-2352 (1997); particularly unstable in a state of a solution", "data": [{"compound": "CCn1c(=O)c2c(nc(/C=C/c3ccc(OC)c(OC)c3)n2C)n(CC)c1=O", "note": "[Compound 1, (E)-8-(3,4-dimethoxystyryl)-1,3-diethyl-7-methyl-3,7-dihydro-1H-purine-2,6-dione]", "values": [{"measurement": "stability under irradiation of light (isomerization at the vinylene moiety)", "result": "unstable particularly under irradiation of light"}]}]}
